A word on the CC50: it is the concentration that lowers cell viability or growth by half.

Experimental findings from patent US20240018123A1, “COMPOUND FOR INHIBITING OR DISINTEGRATING ANDROGEN RECEPTOR, AND PHARMACEUTICAL USE THEREOF” (KOREA RESEARCH INSTITUTE OF CHEMICAL TECHNOLOGY, priority 2020, published 2024) are described below.

The target of one series is T1, Androgen receptor (AR) (Homo sapiens, UniProt P10275, T878A).
T1 construct: 5.5×10^5 LNCap cells were injected into each well of a 6-well plate; endogenous in cells; host or cells: LNCaP
T1 sequence (P10275 1-920 T878A): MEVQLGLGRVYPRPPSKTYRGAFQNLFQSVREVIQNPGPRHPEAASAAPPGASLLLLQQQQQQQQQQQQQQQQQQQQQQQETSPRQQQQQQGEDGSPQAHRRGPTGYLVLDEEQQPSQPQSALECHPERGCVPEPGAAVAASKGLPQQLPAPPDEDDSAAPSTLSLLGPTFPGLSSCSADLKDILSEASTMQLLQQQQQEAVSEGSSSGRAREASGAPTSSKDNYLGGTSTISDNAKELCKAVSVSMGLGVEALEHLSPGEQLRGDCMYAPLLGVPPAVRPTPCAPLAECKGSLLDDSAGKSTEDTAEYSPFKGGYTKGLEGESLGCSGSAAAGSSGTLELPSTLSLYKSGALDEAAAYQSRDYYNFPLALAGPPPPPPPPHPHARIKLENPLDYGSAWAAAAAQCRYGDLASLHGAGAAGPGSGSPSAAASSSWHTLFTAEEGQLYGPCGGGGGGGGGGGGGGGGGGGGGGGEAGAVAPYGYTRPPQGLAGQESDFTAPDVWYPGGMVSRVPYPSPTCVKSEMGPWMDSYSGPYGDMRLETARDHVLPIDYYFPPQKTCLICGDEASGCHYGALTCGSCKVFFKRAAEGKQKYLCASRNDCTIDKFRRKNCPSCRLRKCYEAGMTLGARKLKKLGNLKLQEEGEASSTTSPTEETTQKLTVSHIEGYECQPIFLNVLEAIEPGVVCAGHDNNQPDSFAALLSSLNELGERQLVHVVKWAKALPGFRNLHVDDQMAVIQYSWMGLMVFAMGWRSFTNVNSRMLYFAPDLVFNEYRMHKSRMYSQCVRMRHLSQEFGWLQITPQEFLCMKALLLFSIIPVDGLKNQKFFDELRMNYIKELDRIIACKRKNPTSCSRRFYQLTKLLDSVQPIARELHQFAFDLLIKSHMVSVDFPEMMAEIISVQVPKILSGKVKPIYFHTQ
Description: Assessment of AR proteolytic activity (Western blotting of LNCap cell lysates). In kind it is cell-based. Particulars: 24 hours of treatment, Western blotting quantified with Image J. In outline: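 LNCap cells seeded at 5.5×10^5 per well and treated with compound for 24 hours. Lysates prepared in RIPA buffer (pH 7.5, with protease inhibitors). AR protein levels assessed by Western blot with densitometric quantification.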
(Immunoblotting shows a protein as a band on a membrane.)

Consider `CC1(C)[C@H](NC(=O)c2ccc(N3CCN(CC4CCN(C(=O)C5CN(c6ccc7nnn(C8CCC(=O)NC8=O)c(=O)c7c6)C5)CC4)CC3)cc2)C(C)(C)[C@H]1Oc1ccc(C#N)c(Cl)c1` (stereo partly drawn) [Example 11, N-((1r,3r)-3-(3-chloro-4-cyanophenoxy)-2,2,4,4-tetramethylcyclobutyl)-4-(4-((1-(1-(3-(2,6-dioxopiperidin-3-yl)-4-oxo-3,4-dihydrobenzo[d][1,2,3]triazin-6-yl)azetidine-3-carbonyl)piperidin-4-yl)methyl)piperazin-1-yl)benzamide], for which, on Androgen receptor (AR), the “Degradation (1 μM treated in LNCaP, % AR remaining)” value is 7%. Moreover, the CC50 was found to be 0.0914 µM in the series with LNCaP cells and 0.0747 µM in the series with VCaP cells.

As to `CC1(C)[C@H](NC(=O)c2ccc(N3CCN(CCC4CCN(c5ccc6nnn(C7CCC(=O)NC7=O)c(=O)c6c5)CC4)CC3)cc2)C(C)(C)[C@H]1Oc1ccc(C#N)c(Cl)c1` (stereo partly drawn) [Example 29, N-((1r,3r)-3-(3-chloro-4-cyanophenoxy)-2,2,4,4-tetramethylcyclobutyl)-4-(4-(2-(1-(3-(2,6-dioxopiperidin-3-yl)-4-oxo-3,4-dihydrobenzo[d][1,2,3]triazin-6-yl)piperidin-4-yl)ethyl)piperazin-1-yl)benzamide], on Androgen receptor (AR), the “Degradation (1 μM treated in LNCaP, % AR remaining)” value was found to be 6%. The CC50 in the series on LNCaP cells came to 0.425 µM; with VCaP cells, 0.12 µM.

Turning to `CC1(C)[C@H](NC(=O)c2ccc(N3CCN(CCC4CCN(c5cccc6nnn(C7CCC(=O)NC7=O)c(=O)c56)CC4)CC3)cc2)C(C)(C)[C@H]1Oc1ccc(C#N)c(Cl)c1` (stereo partly drawn) [Example 28, N-((1r,3r)-3-(3-chloro-4-cyanophenoxy)-2,2,4,4-tetramethylcyclobutyl)-4-(4-(2-(1-(3-(2,6-dioxopiperidin-3-yl)-4-oxo-3,4-dihydrobenzo[d][1,2,3]triazin-5-yl)piperidin-4-yl)ethyl)piperazin-1-yl)benzamide], the “Degradation (1 μM treated in LNCaP, % AR remaining)” value on Androgen receptor (AR) is 69%. Also, the CC50 in the series with LNCaP cells amounted to 1.28 µM; in the series on VCaP cells it was 1.58 µM.

In the case of `CC1(C)[C@H](NC(=O)c2ccc(N3CCN(CC4CCN(c5cccc6nnn(C7CCC(=O)NC7=O)c(=O)c56)CC4)CC3)cc2)C(C)(C)[C@H]1Oc1ccc(C#N)c(Cl)c1` (stereo partly drawn) [Example 7, N-((1r,3r)-3-(3-chloro-4-cyanophenoxy)-2,2,4,4-tetramethylcyclobutyl)-4-(4-((1-(3-(2,6-dioxopiperidin-3-yl)-4-oxo-3,4-dihydrobenzo[d][1,2,3]triazin-5-yl)piperidin-4-yl)methyl)piperazin-1-yl)benzamide], on Androgen receptor (AR), the “Degradation (1 μM treated in LNCaP, % AR remaining)” value is 24.3%. In the series with LNCaP cells, this molecule registered a CC50 of 0.902 µM.

Consider `CC1(C)[C@H](NC(=O)c2ccc(N3CCN(CC4CCN(C(=O)CNc5ccc6nnn(C7CCC(=O)NC7=O)c(=O)c6c5)CC4)CC3)cc2)C(C)(C)[C@H]1Oc1ccc(C#N)c(Cl)c1` (stereo partly drawn) [Example 9, N-((1r,3r)-3-(3-chloro-4-cyanophenoxy)-2,2,4,4-tetramethylcyclobutyl)-4-(4-((1-((3-(2,6-dioxopiperidin-3-yl)-4-oxo-3,4-dihydrobenzo[d][1,2,3]triazin-6-yl)glycyl)piperidin-4-yl)methyl)piperazin-1-yl)benzamide], for which the “Degradation (1 μM treated in LNCaP, % AR remaining)” value on Androgen receptor (AR) came to 39.9%. The same molecule registered a CC50 with LNCaP cells of 0.117 µM.

In the case of `CC1(C)C(NC(=O)c2ccc(OCCOCCOCCOCCOCCOCCCCNC(=O)CNc3cccc4nnn(C5CCC(=O)NC5=O)c(=O)c34)cc2)C(C)(C)C1Oc1ccc(C#N)c(Cl)c1` (stereo not drawn) [Example 14, N-((1r,3r)-3-(3-chloro-4-cyanophenoxy)-2,2,4,4-tetramethylcyclobutyl)-4-((22-((3-(2,6-dioxopiperidin-3-yl)-4-oxo-3,4-dihydrobenzo[d][1,2,3]triazin-5-yl)amino)-21-oxo-3,6,9,12,15-pentaoxa-20-azadocosyl)oxy)benzamide], on Androgen receptor (AR), the “Degradation (1 μM treated in LNCaP, % AR remaining)” value was 35.3%. In the series with LNCaP cells, this molecule returned a CC50 of 4.02 µM.
